Results on ten compounds are retold here after US10385057B2, “Pyrazole compounds and methods of making and using same” (Lundbeck La Jolla Research Center, Inc., priority 2015, dated 2019).

SMILES strings stand for the structures.

Assay [1] deals with T1, MAGL (Mus musculus, UniProt O35678).
T1 construct: mouse brain membrane fraction or cell lysates for mouse assays; from tissue
T1 sequence (O35678 1-303): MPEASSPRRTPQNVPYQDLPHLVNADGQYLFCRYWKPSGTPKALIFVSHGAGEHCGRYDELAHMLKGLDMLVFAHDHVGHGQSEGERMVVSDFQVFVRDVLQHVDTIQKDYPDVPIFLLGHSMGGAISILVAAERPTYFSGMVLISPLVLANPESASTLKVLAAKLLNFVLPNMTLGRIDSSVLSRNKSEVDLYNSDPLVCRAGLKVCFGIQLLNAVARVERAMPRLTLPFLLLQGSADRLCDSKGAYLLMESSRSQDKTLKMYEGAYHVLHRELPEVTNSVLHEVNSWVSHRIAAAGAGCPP
Kind of assay: In vitro competitive activity-based protein profiling, mouse MAGL. It counts as biochemical. Conditions: for inhibition at 1 µM: read-out: MAGL % inh. 1 μM (mouse). The essentials: (§1)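 Mouse brain membranes or cell lysates (mouse) and human prefrontal cortex or cell membrane fractions (human), 1.0 mg/mL protein, preincubated with inhibitor 30 min at 37 °C, then FP-Rh or HT-01 probe 30 min at 37 °C. SDS-PAGE; MAGL and FAAH activity from in-gel fluorescence band intensity.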

The target in assay [2] is T2, FAAH (Mus musculus, UniProt O08914).
T2 construct: mouse brain membrane fraction or cell lysates for mouse assays; from tissue
T2 sequence (O08914 1-579): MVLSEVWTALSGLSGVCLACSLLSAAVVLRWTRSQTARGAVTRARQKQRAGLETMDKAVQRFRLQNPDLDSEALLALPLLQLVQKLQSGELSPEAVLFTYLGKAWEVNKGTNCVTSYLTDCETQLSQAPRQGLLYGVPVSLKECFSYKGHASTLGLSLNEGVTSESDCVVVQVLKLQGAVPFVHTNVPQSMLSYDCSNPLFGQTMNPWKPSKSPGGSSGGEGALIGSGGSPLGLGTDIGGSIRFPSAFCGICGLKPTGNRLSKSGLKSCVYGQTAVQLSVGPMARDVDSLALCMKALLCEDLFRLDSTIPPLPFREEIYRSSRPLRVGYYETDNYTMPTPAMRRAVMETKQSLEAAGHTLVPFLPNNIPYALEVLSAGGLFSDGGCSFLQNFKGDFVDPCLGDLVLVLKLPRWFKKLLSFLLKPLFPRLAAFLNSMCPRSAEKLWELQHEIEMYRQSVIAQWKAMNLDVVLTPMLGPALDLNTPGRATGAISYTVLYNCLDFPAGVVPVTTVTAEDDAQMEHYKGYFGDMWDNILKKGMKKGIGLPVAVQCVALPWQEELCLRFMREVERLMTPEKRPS
Kind of assay: In vitro competitive activity-based protein profiling, mouse FAAH. The format is biochemical. Conditions: for inhibition at 1 µM: read-out: FAAH % inh. 1 μM (mouse). Put shortly: as §1

For the compound `Cc1ccccc1CN1CCC2(CCN(C(=O)n3cc(C(F)(F)F)cn3)C2)C1` (stereo not drawn) [Example 178, (7-(2-methylbenzyl)-2,7-diazaspiro[4.4]nonan-2-yl)(4-(trifluoromethyl)-1H-pyrazol-1-yl)methanone], in assay [1], the IC50 (as a rule, the concentration at which inhibition is half-maximal) lay within 100 to 1000 nM and the inhibition at 1 µM is not below 75%. Besides, in assay [2], the IC50 lay in the range of 100 to 1000 nM and the inhibition at 1 µM was not below 75%.
`COc1ccccc1CN1CCC2(CCN(C(=O)n3cc(C(F)(F)F)cn3)C2)C1` (stereo not drawn) [Example 179, (7-(2-methoxybenzyl)-2,7-diazaspiro[4.4]nonan-2-yl)(4-(trifluoromethyl)-1H-pyrazol-1-yl)methanone]: the inhibition at 1 µM is not below 75% in assay [1] and 50 to 75% in assay [2].
With `O=C(N1CCC2(CCN(Cc3ccccc3C(F)(F)F)C2)C1)n1cc(C(F)(F)F)cn1` (stereo not drawn) [Example 180, (4-(trifluoromethyl)-1H-pyrazol-1-yl)(7-(2-(trifluoromethyl)benzyl)-2,7-diazaspiro[4.4]nonan-2-yl)methanone], the inhibition at 1 µM in assay [1] and in assay [2] was not below 75% throughout.
`O=C(N1CCC2(CCN(Cc3ccccc3N3CCCC3)C2)C1)n1cc(C(F)(F)F)cn1` (stereo not drawn) [Example 181, (7-(2-(pyrrolidin-1-yl)benzyl)-2,7-diazaspiro[4.4]nonan-2-yl)(4-(trifluoromethyl)-1H-pyrazol-1-yl)methanone]: the inhibition at 1 µM in assay [1] is not below 75%; in assay [2] it was 25 to 50%.
As for `O=C(N1CCC2(CCN(Cc3ccccc3N3CCOCC3)C2)C1)n1cc(C(F)(F)F)cn1` (stereo not drawn) [Example 182, 2-{[2-(morpholin-4-yl)phenyl]methyl}-7-{[4-(trifluoromethyl)-1H-pyrazol-1-yl]carbonyl}-2,7-diazaspiro[4.4]nonane], the values for the inhibition at 1 µM in assay [1] and in assay [2] were not below 75% and 25 to 50%, respectively.
For the compound `CN(Cc1ccc(C(F)(F)F)cc1)[C@H]1C[C@@H]2CN(C(=O)n3cc(C(=O)N4CCOCC4)cn3)C[C@@H]2C1` [Example 184, (trans-5-(methyl(4-(trifluoromethyl)benzyl)amino)hexahydrocyclopenta[c]pyrrol-2(1H)-yl)(4-(morpholine-4-carbonyl)-1H-pyrazol-1-yl)methanone], the values for the inhibition at 1 µM in assay [1] and in assay [2] were 50 to 75% and not below 75%, respectively.
As for `CN(Cc1ccc(C(F)(F)F)cc1)[C@H]1C[C@@H]2CN(C(=O)n3cc(C(=O)N4CCN(C5CC5)CC4)cn3)C[C@@H]2C1` [Example 186, (4-cyclopropylpiperazin-1-yl)(1-(trans-5-(methyl(4-(trifluoromethyl)benzyl)amino)octahydrocyclopenta[c]pyrrole-2-carbonyl)-1H-pyrazol-4-yl)methanone], the inhibition at 1 µM in assay [1] and in assay [2] was not below 75% throughout.
On to `O=C(O)c1cnn(C(=O)N2CC3CN(Cc4cccc(Oc5ccccc5)c4)CC3C2)c1` (stereo not drawn) [Example 187, 1-(5-(3-phenoxybenzyl)octahydropyrrolo[3,4-c]pyrrole-2-carbonyl)-1H-pyrazole-4-carboxylic acid], for which the inhibition at 1 µM in assay [1] is 50 to 75%; in assay [2], not below 75%.
For the compound `O=C(c1cnn(C(=O)N2CC3CN(Cc4ccc(Oc5ccc(Cl)cc5)cc4)CC3C2)c1)N1CCCC1` (stereo not drawn) [Example 189, (5-(4-(4-chlorophenoxy)benzyl)hexahydropyrrolo[3,4-c]pyrrol-2(1H)-yl)(4-(pyrrolidine-1-carbonyl)-1H-pyrazol-1-yl)methanone], in assay [1], the IC50 lay within 100 to 1000 nM and the inhibition at 1 µM lay in the range of 50 to 75%. Further, in assay [2], the IC50 was not above 100 nM and the inhibition at 1 µM is not below 75%.
As for `CN(Cc1ccc(-c2cccnn2)cc1C(F)(F)F)[C@@H]1C[C@@H]2CN(C(=O)n3cc(C(N)=O)cn3)C[C@@H]2C1` [Example 191, 1-(cis-5-(methyl(4-(pyridazin-3-yl)-2-(trifluoromethyl)benzyl)amino)octahydrocyclopenta[c]pyrrole-2-carbonyl)-1H-pyrazole-4-carboxamide], the inhibition at 1 µM in assay [1] and in assay [2] was not below 75% in each case.
